Laboratory results taken from patent publication US8946299B2, “Use of calixarenes associated with an antibiotic in the treatment of bacterial infections” (Universite de Lorraine, priority 2011, dated 2015).
One block for each compound: values may come before it.

Columns and labels:
[1] = tested on: EcR1: Penicillinase-Producing Escherichia coli without Associated Resistance; test: Antibiogram, MIC by the VITEK 2 system; assay type: cell-based; settings: Table A1, category from MIC
Procedure: 5. Identification and Antibiogram 5.1 EcR1: Penicillinase-Producing Escherichia coli without Associated Resistance
The bacterial and antibiogram identification is carried out by the VITEK 2 system (bioMérieux) and by the disk diffusion technique.

[2] = tested on: EcR2: Cephalosporinase-Hyperproducing Escherichia coli; test: Antibiogram by the disk diffusion technique; assay type: cell-based; settings: Table B2; strain EcR2; diameters
Procedure: 5.2 EcR2: Cephalosporinase-Hyperproducing Escherichia coli Having an Associated Resistance to the Aminoglycosides, Quinolones and the Trimethoprim-Sulphamethoxazole Combination
The bacterial and antibiogram identification is carried out by the VITEK 1 system (bioMérieux) and by the disk diffusion technique

[3] = tested on: Pseudomonas aeruginosa strain having a resistance to β-lactams, the trimethoprim-sulphamethoxazole combination and fosfomycin (PaR2); assay type: cell-based; settings: antibiotic used alone; second figure of the cell; n = 4
Description: (§1) Three reference strains were used, corresponding to those studied for the MICs and MBCs (Minimum Bactericidal Concentration): Escherichia coli ATCC 25922, Staphylococcus aureus ATCC 29213, Pseudomonas aeruginosa ATCC 27853. For each of these strains 3 corresponding clinical isolates were chosen, having various antibiotic-resistance profiles, routinely used in standard fashion: • EcR1, EcR2, EcR3; • SaR1, SaR3, SaR4; • PaR2, PaR3, PaR5.
(§2) 1.3. Procedure: Chessboard Technique
(§3) The bacterial suspension is transferred to a 15 mL Falcon tube, centrifuged for 10 min at 4500 g, then the pellet is re-suspended in 1 mL of sterile distilled water. Suitable dilutions are then prepared in order to obtain a bacterial inoculum between 5·10^5 and 5·10^6 CFU/mL.
(§4) The MICs of the antibiotics were previously determined for each strain, by the method of microdilution in a liquid medium (CLSI (Clinical and Laboratory Standards Institute), 2003).
(§5) The same procedure is followed for the Cx1. […] Thus 64 ATB/Cx1 combinations are obtained.
(§6) The final volume contained in each of the wells must be 100 μL. Two controls must be present on each plate: • column 1 and 12: medium control • column 2 and 11: medium+bacteria control
(§7) Cx1: […] in the wells of […], starting with the lowest concentration.
(§8) ATB: 25 μL in the wells of rows H to A (columns 3 to 11), starting with the lowest concentration.
(§9) 50 μL in each of the wells of columns 2 to 11.
(§10) D2: Reading the Turbidity at 540 Nm.
(§11) The FIC (Fractional Inhibitory Concentration Index) value is determined by the following formula:
(§12) [formula] MICA in combination MICA alone MICB in combination MICB alone
(§13) When FIC≦0.5, there is a synergistic effect between antibiotic A and antibiotic B.
(§14) When 0.5<FIC≦1, there is an additive effect between antibiotic A and antibiotic B.
(§15) When 1<FIC≦4, there is an indifferent effect between antibiotic A and antibiotic B.
(§16) When FIC>4, there is an antagonistic effect between antibiotic A and antibiotic B.
(§17) For each strain and each antibiotic/Cx1 combination, the experiments were repeated a minimum of 3 times.

[4] = tested on: Escherichia coli, Staphylococcus aureus and Pseudomonas aeruginosa strains; test: Chessboard technique, summary over all strains and combinations tested; assay type: cell-based
Description: as §1, §2
The FIC (Fractional Inhibitory Concentration Index) value is determined by the following formula: […]
as §17

[5] = tested on: cephalosporinase-hyperproducing strain of Escherichia coli (EcR2); test: Chessboard technique: MICs alone and synergism of Cx1 combinations; assay type: cell-based; settings: antibiotic used alone; second figure of the cell; n = 4
Description: as §1, §2, §3, §4, §5, §6, §7, §8, §9, §10, §11, §12, §13, §14, §15, §16, §17

[6] = tested on: Pseudomonas aeruginosa strain having a resistance to β-lactams (including the carbapenems), aminoglycosides, the trimethoprim-sulphamethoxazole combination and …; test: as above; assay type: cell-based; settings: antibiotic used alone; second figure of the cell; n = 4
Description: as §1, §2, §3, §4, §5, §6, §7, §8, §9, §10, §11, §12, §13, §14, §15, §16, §17

[7] = tested on: Pseudomonas aeruginosa strain ATCC 27853 (wild type); test: as above; assay type: cell-based; settings: antibiotic used alone; second figure of the cell; n = 4
Description: as §1, §2, §3, §4, §5, §6, §7, §8, §9, §10, §11, §12, §13, §14, §15, §16, §17

[8] = tested on: mucoid strain of Pseudomonas aeruginosa having a resistance to rifampicin and the trimethoprim-sulphamethoxazole combination (PaR5); test: as above; assay type: cell-based; settings: antibiotic used alone; second figure of the cell; n = 4
Description: as §1, §2, §3, §4, §5, §6, §7, §8, §9, §10, §11, §12, §13, §14, §15, §16, §17

[9] = tested on: ESBL-producing strain of Escherichia coli (EcR3); test: as above; assay type: cell-based; settings: antibiotic used alone; second figure of the cell; n = 4
Description: as §1, §2, §3, §4, §5, §6, §7, §8, §9, §10, §11, §12, §13, §14, §15, §16, §17

[10] = tested on: SaR4: Meticillin-Resistant Staphylococcus aureus; test: Antibiogram by the disk diffusion technique; assay type: cell-based; settings: Table F2; strain SaR4; diameters
Procedure: 5.6 SaR4: Meticillin-Resistant Staphylococcus aureus Having an Associated Resistance to the Aminoglycosides, Fluoroquinolones, Macrolides-Lincosamines-Synergistins and Ofloxacin The bacterial and antibiogram identification is carried out by the VITEK 2 system (bioMérieux) and by the disk diffusion technique
5.7 PaR2: Pseudomonas aeruginosa Having an Associated Resistance to the β-Lactams, the Trimethoprim-Sulphamethoxazole Combination and Fosfomycin The bacterial and antibiogram identification is carried out by the VITEK 2 system (bioMérieux) and by the disk diffusion technique

[11] = tested on: PaR5: Pseudomonas aeruginosa; test: Antibiogram by the disk diffusion technique; assay type: cell-based; design: unit not given here; settings: Table I1; strain PaR5
[12] = tested on: SaR1: Meticillin-Resistant Staphylococcus aureus without Associated Resistance; test: Antibiogram by the VITEK 2 system; assay type: cell-based; settings: Table D1; strain SaR1
Procedure: 5.4 SaR1: Meticillin-Resistant Staphylococcus aureus without Associated Resistance
The bacterial and antibiogram identification is carried out by the VITEK 2 system (bioMérieux)
February 2006: Detection of the gene mecA by the PCR technique: POSITIVE Expert finding July 2006: totally typical phenotype: modification of the PLPs The fluctuations relative to the type of associated resistance for certain strains between Tables D1 and D2 are due to the development of the French (CA-SFM), European (EUCAST) and American (CLSI) recommendations for the categorization of bacterial strains. 5.5 SaR3: Meticillin-Resistant Staphylococcus aureus Having an Associated Resistance to the Aminoglycosides and Fluoroquinolones The bacterial and antibiogram identification is carried out by the VITEK 2 system (bioMérieux) and by the disk diffusion technique

[13] = tested on: Staphylococcus aureus strain ATCC 29213 (wild type); test: Chessboard technique: MICs alone and synergism of Cx1 combinations; assay type: cell-based; settings: antibiotic used alone; second figure of the cell; n = 4
Description: as §1, §2, §3, §4, §5, §6, §7, §8, §9, §10, §11, §12, §13, §14, §15, §16, §17

[14] = tested on: SaR3: Meticillin-Resistant Staphylococcus aureus; test: Antibiogram by the disk diffusion technique; assay type: cell-based; settings: Table E1; strain SaR3
[15] = tested on: MRSA strain without associated resistance (SaR1); test: Chessboard technique: MICs alone and synergism of Cx1 combinations; assay type: cell-based, Staphylococcus aureus; settings: antibiotic used alone; second figure of the cell; n = 4
Description: as §1, §2, §3, §4, §5, §6, §7, §8, §9, §10, §11, §12, §13, §14, §15, §16, §17

[16] = tested on: MRSA strain having a resistance to the aminoglycosides and fluoroquinolones (SaR3); test: as above; assay type: cell-based, Staphylococcus aureus; settings: antibiotic used alone; second figure of the cell; n = 4
Description: as §1, §2, §3, §4, §5, §6, §7, §8, §9, §10, §11, §12, §13, §14, §15, §16, §17

[17] = tested on: MRSA strain having a resistance to the aminoglycosides, fluoroquinolones, macrolides-lincosamides-synergistins and ofloxacin (SaR4); test: as above; assay type: cell-based, Staphylococcus aureus; settings: antibiotic used alone; second figure of the cell; n = 4
Description: as §1, §2, §3, §4, §5, §6, §7, §8, §9, §10, §11, §12, §13, §14, §15, §16, §17

SMILES: CC(C)(O/N=C(\C(=O)N[C@@H]1C(=O)N2C(C(=O)[O-])=C(C[n+]3ccccc3)CS[C@H]12)c1csc(N)n1)C(=O)O [Ceftazidime]
Results (MIC) [1]: Susceptible
diameter in mm [2]: 20 mm
MIC (antibiotic) [3]: 8 µg/mL
nature of the interaction between Cx1 and the antibiotic [4]: synergism
Initial MICs (antibiotic) [5]: 8 mg/L
MIC (antibiotic) [6]: 16 µg/mL
MIC (antibiotic) [7]: 4 µg/mL
MIC (antibiotic) [8]: 8 µg/mL
Initial MICs (antibiotic) [9]: 1 mg/L

SMILES: NC[C@H]1O[C@H](O[C@H]2[C@H](O)[C@@H](O[C@H]3O[C@H](CO)[C@@H](O)[C@H](N)[C@H]3O)[C@H](N)C[C@@H]2N)[C@H](O)[C@@H](O)[C@@H]1O [Kanamycin]
diameter in mm [10]: 7 mm

SMILES: CCn1cc(C(=O)O)c(=O)c2cc(F)c(N3CCNCC3)cc21 [Norofloxacin]
Diameter [11]: 17

Initials MIC (antibiotic) [13]: 1 µg/mL
MIC (antibiotic) [15]: 0.5 µg/mL
MIC (antibiotic) [16]: 0.5 µg/mL
MIC (antibiotic) [17]: 4 µg/mL
SMILES: CC1(C)S[C@@H]2[C@H](NC(=O)Cc3ccccc3)C(=O)N2[C@H]1C(=O)O [Penicillin G]
Diameter [12]: 28
Diameter [14]: 26
